2 molecules from patent US20240327364A1, “THERAPEUTIC TARGETING OF GPR68 TO INDUCE FERROPTOSIS” (University Of Maryland, Baltimore, priority 2023, published 2024) can be followed below.

For assay [1], the target named is T1, ABL1(Q252H)-phosphorylated (Homo sapiens, UniProt P00519, Q252H).
T1 construct: purchased DiscoveRx
The assay can be described thus: KinomeScan. Format: binding. The note with it: read-out: % Control.

The target in assay [2] is T2, ACVR2A (Homo sapiens, UniProt P27037).
T2 construct: purchased DiscoveRx
Put plainly: KinomeScan. Format: binding. The following applies: read-out: % Control.

Assay [3] concerns the target T3, CAMK4 (Homo sapiens, UniProt Q16566).
T3 construct: purchased DiscoveRx (KinomeScan service)
The assay can be described thus: KinomeScan. It is filed as binding. The following applies: read-out: % Control.

Assay [4] has as its target CLK1 (Homo sapiens, UniProt P49759). The assay can be described thus: KinomeScan. The following applies: read-out: % Control. Format: binding.
Assay [5] concerns the target T4, EPHB1 (Homo sapiens, UniProt P54762).
T4 construct: purchased DiscoveRx (Fremont, CA)
The assay can be described thus: KinomeScan. The following applies: read-out: % Control. It is filed as binding.

The target of assay [6] is T5, PAK3 (Homo sapiens, UniProt O75914).
T5 construct: purchased DiscoveRx
Put plainly: KinomeScan. The following applies: read-out: % Control. It is filed as binding.

The target of assay [7] is T6, PKMYT1 (Homo sapiens, UniProt Q99640).
T6 construct: purchased DiscoveRx (Fremont, CA)
The assay can be described thus: KinomeScan. It is filed as binding. The note with it: read-out: % Control.

Assay [8] has as its target T7, RSK2(Kin.Dom.1-N-terminal) (Homo sapiens, UniProt P51812).
T7 construct: RSK2(Kin.Dom.1-N-terminal); purchased DiscoveRx (Fremont, CA)
The assay can be described thus: KinomeScan. The following applies: read-out: % Control. It is filed as binding.

In assay [9] the target is T8, SLK (Homo sapiens, UniProt Q9H2G2).
T8 construct: purchased DiscoveRx (Fremont, CA)
Put plainly: KinomeScan. It is filed as binding. The following applies: read-out: % Control.

Assay [10] concerns the target T9, STK36 (Homo sapiens, UniProt Q9NRP7).
T9 construct: purchased DiscoveRx (Fremont, CA)
The assay can be described thus: KinomeScan. Format: binding. The following applies: read-out: % Control.

Assay [11] has as its target T10, TYK2(JH2domain-pseudokinase) (Homo sapiens, UniProt P29597).
T10 construct: TYK2(JH2domain-pseudokinase); purchased DiscoveRx
Put plainly: KinomeScan. It is filed as binding. The note with it: read-out: % Control.

For assay [12], the target named is T11, YANK3 (Homo sapiens, UniProt Q86UX6).
T11 construct: purchased DiscoveRx
Put plainly: KinomeScan. The note with it: read-out: % Control. It is filed as binding.

In assay [13] the target is T12, BDKR2 (Homo sapiens, UniProt P30411).
T12 construct: host or cells: Chem-1 cells with promiscuous Gα15
Put plainly: GPCR Profiler. It is filed as cell-based.

In assay [14] the target is T13, CCR7 (Homo sapiens, UniProt P32248).
T13 construct: host or cells: Chem-1 cells with Gα15
Put plainly: GPCR Profiler. Format: cell-based.

For assay [15], the target named is T14, CCR8 (Homo sapiens, UniProt P51685).
T14 construct: host or cells: Chem-1 cells with Gα15
Put plainly: GPCR Profiler. Format: cell-based.

Assay [16] deals with T15, CXCR6 (Homo sapiens, UniProt O00574).
T15 construct: host or cells: Chem-1 cells with Gα15
Put plainly: GPCR Profiler. Format: cell-based.

Assay [17] concerns the target T16, ETA (Homo sapiens, UniProt P25101).
T16 construct: host or cells: Chem-1 cells expressing Gα15
The assay can be described thus: GPCR Profiler. It is filed as cell-based.

The test system of assay [18] is GL261Luc. The assay can be described thus: Cell Titer-Glo viability, Glioblastoma. It is filed as cell-based. The procedure:
(§1) OGM2 kills wide variety of cancer cell types. Cell sensitivity can be classified in to Very Sensitive (LC50<2 μM), Sensitive (LC50=2 to 10 μM), Mildly Sensitive (LC50>10 μM), and Refractory (no killing at 10 μM). The listed established cell were incubated with OGM2 at 2 μM or 10 μM for 72 hours under standard cell culture conditions, and relative cell number was assessed using Cell Titer-Glo Luminescent Cell Viability Assay (Promega™) following the manufacturer's instructions. Luminescence was determined using a Cytation 5 reader and Gen5 software package (BioTek™).
(§2) Cancer cells, which are very sensitive to killing by OGM2 (LCs <2 μM), with reported mRNA expression of GPR68 and the related proton sensing receptor GPR4. LC50's (concentrations causing 50% lethality) were determined using CellTiter-Glo (Promega™, G7570). Cells were plated in 12-well plates (CELLTREAT Scientific Products, 229112) in 1 ml of DMEM with high glucose, GlutaMAX, HEPES, or RPMI 1640 with Penicillin-Streptomycin (ThermoFisher™, 10564029, 11875119 and 15140122) and 10% FBS. Cells were incubated overnight at 37° C. in 5% CO2. Then 1 mL of fresh media was added with DMSO, OGM, or positive control (Erastin; APExBIO Technology, LLC, B1524) and cells incubated for 3 days. On the third day, all media was removed, cells were rinsed with 1×PBS, PBS was removed, and 200 μL of 1× Passive Lysis Buffer (Promega™, E1941) was added to each well. […]. Subsequently, 20 μL of lysate was added to 100 μL CellTiter-Glo™ reagent on a LUMITRAC 200 plate (Greiner™ bio-one, 82050-726). Plates were briefly spun down and read on a GloMax-Multi Detection System (Promega™).
(§3) The cells listed in the tables above were incubated with OGM2 at 2 μM or 10 μM for 72 hours under standard cell culture conditions, and relative cell number was assessed using Cell Titer-Glo Luminescent Cell Viability Assay (Promega™) following the manufacturer's instructions. Luminescence was determined using a Cytation 5 reader and Gen5 software package (BioTek™). RNA expression of GPR68 and GPR4 in the corresponding cancer cell lines are listed, according to the publicly available The Human Protein Atlas version 22.0 and Ensembl version 103.38 (see proteinatlas.org). The consensus normalized expression value (“nTPM”=normalize transcript per million) was calculated as the maximum nTPM value for each gene in the two data sources.

The subject of assay [19] is KR-158-luc. The assay can be described thus: Cell Titer-Glo viability, Glioblastoma. Format: cell-based. The method, then:
as §1, §2, §3

Assay [20] deals with U-138 MG. The assay can be described thus: Cell Titer-Glo viability, Glioblastoma. The following applies: 72 hours. Format: cell-based. The method, then: as §1, §2, §3
Assay [21] relates to U-87 MG. The assay can be described thus: Cell Titer-Glo viability, Glioblastoma. Format: cell-based. The note with it: 72 hours. The procedure: as §1, §2, §3
For assay [22], the target named is GPR68 (Homo sapiens, UniProt Q15743). Put plainly: Acid-induced calcium response, GPR68-transfected HEK293 cells. Format: cell-based.

Some results are limits rather than exact numbers.

T13 sequence (P32248 25-378, species assumed): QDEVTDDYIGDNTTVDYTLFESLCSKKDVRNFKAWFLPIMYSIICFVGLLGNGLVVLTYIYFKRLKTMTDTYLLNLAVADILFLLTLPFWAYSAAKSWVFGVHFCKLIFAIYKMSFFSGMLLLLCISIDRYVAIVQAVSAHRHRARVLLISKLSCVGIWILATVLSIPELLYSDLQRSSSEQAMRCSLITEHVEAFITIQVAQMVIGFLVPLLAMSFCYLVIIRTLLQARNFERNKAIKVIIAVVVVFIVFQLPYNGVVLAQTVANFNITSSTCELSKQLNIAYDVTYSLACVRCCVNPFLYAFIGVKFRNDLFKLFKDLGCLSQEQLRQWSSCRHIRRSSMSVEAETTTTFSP
T14 sequence (P51685 whole entry, species assumed): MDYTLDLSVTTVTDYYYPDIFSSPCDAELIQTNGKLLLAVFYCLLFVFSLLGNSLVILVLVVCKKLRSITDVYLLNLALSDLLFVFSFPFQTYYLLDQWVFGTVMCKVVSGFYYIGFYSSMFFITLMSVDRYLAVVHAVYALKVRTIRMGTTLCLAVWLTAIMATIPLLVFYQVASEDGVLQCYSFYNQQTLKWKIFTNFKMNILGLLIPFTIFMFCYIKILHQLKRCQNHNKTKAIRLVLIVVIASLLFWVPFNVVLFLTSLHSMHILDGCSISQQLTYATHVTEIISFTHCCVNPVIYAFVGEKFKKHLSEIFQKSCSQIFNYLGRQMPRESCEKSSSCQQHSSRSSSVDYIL
T16 sequence (P25101 21-427): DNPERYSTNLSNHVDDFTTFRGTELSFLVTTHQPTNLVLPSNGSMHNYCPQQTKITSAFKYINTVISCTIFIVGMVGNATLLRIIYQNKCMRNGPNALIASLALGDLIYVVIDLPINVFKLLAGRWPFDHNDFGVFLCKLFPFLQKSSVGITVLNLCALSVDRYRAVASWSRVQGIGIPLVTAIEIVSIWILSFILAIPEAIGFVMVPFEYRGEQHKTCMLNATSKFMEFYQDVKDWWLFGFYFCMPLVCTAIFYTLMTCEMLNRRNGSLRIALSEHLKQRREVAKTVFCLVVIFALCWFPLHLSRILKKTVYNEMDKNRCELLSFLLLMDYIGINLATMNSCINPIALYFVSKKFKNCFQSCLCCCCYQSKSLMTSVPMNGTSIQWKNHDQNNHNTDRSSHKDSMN
T15 sequence (O00574 whole entry, species assumed): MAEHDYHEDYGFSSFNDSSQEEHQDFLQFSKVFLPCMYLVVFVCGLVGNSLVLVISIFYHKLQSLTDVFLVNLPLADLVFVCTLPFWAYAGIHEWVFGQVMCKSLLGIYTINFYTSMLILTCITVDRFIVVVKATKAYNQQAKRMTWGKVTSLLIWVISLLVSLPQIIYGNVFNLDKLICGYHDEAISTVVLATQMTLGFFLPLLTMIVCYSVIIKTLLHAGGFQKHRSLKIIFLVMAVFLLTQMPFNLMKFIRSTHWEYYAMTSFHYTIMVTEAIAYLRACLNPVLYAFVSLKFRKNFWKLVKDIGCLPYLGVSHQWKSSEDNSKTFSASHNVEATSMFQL
T12 sequence (P30411 whole entry): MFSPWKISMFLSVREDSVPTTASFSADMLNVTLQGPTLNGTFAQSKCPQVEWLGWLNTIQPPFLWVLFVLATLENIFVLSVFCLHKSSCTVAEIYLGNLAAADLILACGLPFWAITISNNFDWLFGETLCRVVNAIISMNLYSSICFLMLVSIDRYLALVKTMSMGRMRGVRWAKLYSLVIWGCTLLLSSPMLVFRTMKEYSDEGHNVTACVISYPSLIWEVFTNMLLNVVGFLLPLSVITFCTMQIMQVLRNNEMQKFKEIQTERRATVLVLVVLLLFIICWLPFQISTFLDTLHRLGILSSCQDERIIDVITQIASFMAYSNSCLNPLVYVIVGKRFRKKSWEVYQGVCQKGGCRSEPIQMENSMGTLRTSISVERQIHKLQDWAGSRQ
T4 sequence (P54762 18-984): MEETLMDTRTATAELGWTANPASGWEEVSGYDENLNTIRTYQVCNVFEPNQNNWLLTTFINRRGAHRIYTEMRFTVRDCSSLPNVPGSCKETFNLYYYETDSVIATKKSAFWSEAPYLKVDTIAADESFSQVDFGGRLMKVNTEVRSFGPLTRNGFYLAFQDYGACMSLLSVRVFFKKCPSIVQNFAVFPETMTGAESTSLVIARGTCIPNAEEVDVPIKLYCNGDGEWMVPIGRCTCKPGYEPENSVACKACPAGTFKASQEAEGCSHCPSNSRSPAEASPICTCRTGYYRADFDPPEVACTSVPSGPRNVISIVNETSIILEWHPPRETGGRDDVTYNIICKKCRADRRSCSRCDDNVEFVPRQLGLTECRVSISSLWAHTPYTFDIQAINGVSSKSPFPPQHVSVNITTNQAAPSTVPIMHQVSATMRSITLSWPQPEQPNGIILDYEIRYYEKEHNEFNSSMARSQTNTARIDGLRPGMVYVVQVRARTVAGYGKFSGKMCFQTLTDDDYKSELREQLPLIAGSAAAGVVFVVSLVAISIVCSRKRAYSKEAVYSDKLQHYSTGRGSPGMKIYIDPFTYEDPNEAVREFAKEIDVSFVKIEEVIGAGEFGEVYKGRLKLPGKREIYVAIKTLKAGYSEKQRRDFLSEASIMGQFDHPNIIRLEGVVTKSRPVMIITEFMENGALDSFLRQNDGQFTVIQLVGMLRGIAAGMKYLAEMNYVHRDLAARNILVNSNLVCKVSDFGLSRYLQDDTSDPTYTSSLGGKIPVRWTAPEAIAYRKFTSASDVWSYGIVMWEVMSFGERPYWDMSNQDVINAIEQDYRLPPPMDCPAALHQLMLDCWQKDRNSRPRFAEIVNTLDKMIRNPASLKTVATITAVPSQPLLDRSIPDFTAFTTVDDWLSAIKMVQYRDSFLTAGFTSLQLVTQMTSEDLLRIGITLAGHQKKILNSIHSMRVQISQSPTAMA
T9 sequence (Q9NRP7 whole entry): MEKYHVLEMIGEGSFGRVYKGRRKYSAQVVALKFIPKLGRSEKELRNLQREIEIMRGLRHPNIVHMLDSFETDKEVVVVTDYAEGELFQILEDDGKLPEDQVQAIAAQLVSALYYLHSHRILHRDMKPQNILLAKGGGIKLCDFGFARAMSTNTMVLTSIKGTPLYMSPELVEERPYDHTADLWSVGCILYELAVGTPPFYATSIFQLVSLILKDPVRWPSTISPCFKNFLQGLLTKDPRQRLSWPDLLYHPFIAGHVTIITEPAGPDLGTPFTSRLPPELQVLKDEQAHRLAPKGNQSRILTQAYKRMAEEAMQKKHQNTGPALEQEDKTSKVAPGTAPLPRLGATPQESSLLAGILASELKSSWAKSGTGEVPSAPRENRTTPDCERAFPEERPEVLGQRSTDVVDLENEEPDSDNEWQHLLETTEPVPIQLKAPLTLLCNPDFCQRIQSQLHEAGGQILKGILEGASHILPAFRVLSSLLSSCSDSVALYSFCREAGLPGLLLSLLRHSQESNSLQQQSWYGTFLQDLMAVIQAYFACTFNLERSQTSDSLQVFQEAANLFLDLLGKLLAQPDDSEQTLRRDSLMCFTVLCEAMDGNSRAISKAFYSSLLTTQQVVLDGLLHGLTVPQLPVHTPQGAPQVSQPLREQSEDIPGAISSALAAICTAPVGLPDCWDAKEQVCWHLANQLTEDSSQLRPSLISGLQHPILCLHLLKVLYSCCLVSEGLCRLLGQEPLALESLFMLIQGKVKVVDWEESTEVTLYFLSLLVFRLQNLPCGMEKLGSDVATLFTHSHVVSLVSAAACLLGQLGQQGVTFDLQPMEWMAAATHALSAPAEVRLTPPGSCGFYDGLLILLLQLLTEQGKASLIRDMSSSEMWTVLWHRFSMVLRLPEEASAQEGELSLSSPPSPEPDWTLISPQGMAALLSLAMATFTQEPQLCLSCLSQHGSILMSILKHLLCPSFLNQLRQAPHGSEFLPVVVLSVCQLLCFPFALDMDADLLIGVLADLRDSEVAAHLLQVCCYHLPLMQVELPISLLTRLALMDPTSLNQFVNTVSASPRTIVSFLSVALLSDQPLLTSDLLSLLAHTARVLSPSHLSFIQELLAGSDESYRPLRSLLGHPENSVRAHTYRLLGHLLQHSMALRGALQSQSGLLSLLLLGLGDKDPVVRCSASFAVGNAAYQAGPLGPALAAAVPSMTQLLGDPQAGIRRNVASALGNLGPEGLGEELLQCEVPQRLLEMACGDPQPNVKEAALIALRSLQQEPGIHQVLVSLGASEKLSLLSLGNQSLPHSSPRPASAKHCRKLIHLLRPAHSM
Chain of GPR68 (Q15743 whole entry): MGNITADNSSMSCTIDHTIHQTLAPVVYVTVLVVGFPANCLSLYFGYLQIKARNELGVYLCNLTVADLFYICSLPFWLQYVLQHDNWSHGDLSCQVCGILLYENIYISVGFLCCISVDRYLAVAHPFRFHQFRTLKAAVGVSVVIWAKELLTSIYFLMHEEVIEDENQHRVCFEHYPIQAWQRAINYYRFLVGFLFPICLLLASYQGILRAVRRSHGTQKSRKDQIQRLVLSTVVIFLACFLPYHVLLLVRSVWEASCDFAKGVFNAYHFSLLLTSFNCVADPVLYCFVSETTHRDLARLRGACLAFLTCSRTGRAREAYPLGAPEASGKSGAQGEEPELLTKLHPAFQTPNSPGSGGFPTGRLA
T6 sequence (Q99640 whole entry): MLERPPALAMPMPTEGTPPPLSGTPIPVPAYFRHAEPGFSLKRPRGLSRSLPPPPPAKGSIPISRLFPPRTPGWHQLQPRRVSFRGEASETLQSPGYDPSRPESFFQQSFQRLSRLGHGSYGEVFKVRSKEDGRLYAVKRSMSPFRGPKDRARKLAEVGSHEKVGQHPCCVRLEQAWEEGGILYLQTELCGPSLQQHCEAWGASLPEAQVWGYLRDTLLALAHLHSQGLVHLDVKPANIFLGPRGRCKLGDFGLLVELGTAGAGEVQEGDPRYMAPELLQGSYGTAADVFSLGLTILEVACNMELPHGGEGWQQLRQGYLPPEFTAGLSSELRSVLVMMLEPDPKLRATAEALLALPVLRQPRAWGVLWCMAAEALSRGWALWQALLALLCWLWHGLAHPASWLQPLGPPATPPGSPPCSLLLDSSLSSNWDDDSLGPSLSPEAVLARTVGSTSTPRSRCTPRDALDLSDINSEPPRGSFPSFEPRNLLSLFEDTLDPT

For `CCc1ccc2c(c1)C1(NN=C(c3cccc4ccccc34)S1)C(=O)N2` (stereo not shown) [OGM1, 5-ethyl-5′-naphthalen-1-ylspiro[1H-indole-3,2′-3H-1,3,4-thiadiazole]-2-one], the remaining binding at 10 µM came to 94% in assay [1]; 100% in [2]; 100% in assay [3]; 100% in assay [4]; 100% in [5]; 93% in assay [6]. Further, the remaining binding at 10 µM in [7] was 78%; in [8] it was 95%; in [9], 90%; in assay [10], 100%; in [11], 100%; in assay [12], 100%. The Antagonism in assay [13] (10 uM) was 3.4; in assay [14] (10 uM), 4; in assay [15] (10 uM), −2.5; in assay [16] (10 uM), −14; in [17] (10 uM) it was 4.7. Further, the Agonism is listed as −2.4 in [13] (12.5 uM); 0 in [14] (12.5 uM); 2 in assay [15] (12.5 uM); 0 in assay [16] (12.5 uM); 0.1 in assay [17] (12.5 uM).

On to `CCc1ccc2c(c1)C1(NN=C(c3ccccc3)S1)C(=O)N2` (stereo not shown) [OGM2], for which the Class result in assay [18] and in assay [19] was “Very Sensitive (Very Sensitive (LC50<2 μM))” each time. In addition, the “% Survival 2 μM OGM” value turned out to be 1.8% in assay [18] (72 hours), 11.4% in assay [19] (72 hours), 40.3% in assay [20] and 21.3% in assay [21]. Moreover, the “% Survival 10 μM OGM” value is reported as 0.1% in assay [18] (72 hours), 4.7% in assay [19] (72 hours), 35.0% in [20] and 10.1% in assay [21]. For the same molecule, the CC50 in assay [18] (Mus musculus, GL261-Luc, 72 hours, read-out: LC50 (the source's name)) is below 2000 nM; in assay [19] (Mus musculus, 72 hours, read-out: LC50 (the source's name)), below 2000 nM; in [20] (Homo sapiens, U138-MG, read-out: LC50 (the source's name)) it was below 2000 nM; in assay [21] (Homo sapiens, U-87 MG, read-out: LC50 (the source's name)) it was below 2000 nM. Also, the “calcium response to extracellular acidification” value in assay [22] was “inhibited”.
